Assay results from ChEMBL document CHEMBL4342421, “Current scenario of tetrazole hybrids for antibacterial activity” (Eur J Med Chem, 2019).
In brackets after ≈: the same amount, converted by molar mass. Each block holds one molecule with its values, some of them ahead of it.

Columns and labels:
Bacillus subtilis [1] = test: Antimicrobial activity against Bacillus subtilis NCIM 2250 after 48 hrs by NCCLS protocol based method; type: functional; conditions: NCIM 2250, 48 h
Escherichia coli [2] = test: Antimicrobial activity against Escherichia coli ATCC 25922 after 48 hrs by NCCLS protocol based method; type: functional; conditions: ATCC 25922, 48 h
Candida albicans [3] = test: Antifungal activity against Candida albicans MTCC 277 after 48 hrs by NCCLS protocol based method; type: functional; conditions: MTCC 277, 48 h
Aspergillus niger [4] = test: Antifungal activity against Aspergillus niger NCIM 545 after 48 hrs by NCCLS protocol based method; type: functional; conditions: NCIM 545, 48 h
Candida albicans [5] = test: Antifungal activity against Candida albicans; type: functional
Bacillus cereus [6] = test: Antimicrobial activity against Bacillus cereus; type: functional
Aspergillus niger [7] = test: Antifungal activity against Aspergillus niger assessed as zone of inhibition at 250 ug/ml; type: functional; conditions: read-out: IZ
Candida albicans [8] = test: Antifungal activity against Candida albicans assessed as zone of inhibition at 250 ug/ml; type: functional; conditions: read-out: IZ
Pseudomonas aeruginosa [9] = test: Antimicrobial activity against Pseudomonas aeruginosa assessed as zone of inhibition at 250 ug/ml; type: functional; conditions: read-out: IZ
Bacillus cereus [10] = test: Antimicrobial activity against Bacillus cereus assessed as zone of inhibition at 250 ug/ml; type: functional; conditions: read-out: IZ
Staphylococcus aureus [11] = test: Antimicrobial activity against Staphylococcus aureus; type: functional
Escherichia coli [12] = test: Antimicrobial activity against Escherichia coli; type: functional
Escherichia coli [13] = test: Antimicrobial activity against Escherichia coli assessed as zone of inhibition at 250 ug/ml; type: functional; conditions: read-out: IZ
Staphylococcus aureus [14] = test: Antimicrobial activity against Staphylococcus aureus assessed as zone of inhibition at 250 ug/ml; type: functional; conditions: read-out: IZ
Pseudomonas aeruginosa [15] = test: Antimicrobial activity against Pseudomonas aeruginosa; type: functional
Aspergillus niger [16] = test: Antifungal activity against Aspergillus niger; type: functional
Staphylococcus aureus [17] = test: Antimicrobial activity against Staphylococcus aureus assessed as zone of inhibition at 50 ug/ml; type: functional; conditions: read-out: IZ
Escherichia coli [18] = test: Antimicrobial activity against Escherichia coli assessed as zone of inhibition at 50 ug/ml; type: functional; conditions: read-out: IZ
Candida albicans [19] = test: Antifungal activity against Candida albicans assessed as zone of inhibition at 50 ug/ml; type: functional; conditions: read-out: IZ
Aspergillus niger [20] = test: Antifungal activity against Aspergillus niger assessed as zone of inhibition at 50 ug/ml; type: functional; conditions: read-out: IZ
Salmonella typhimurium = test: Antimicrobial activity against Salmonella typhimurium; type: functional, Salmonella enterica subsp. enterica serovar Typhimurium; conditions: Salmonella enterica
Micrococcus luteus = test: Antibacterial activity against Micrococcus luteus; type: functional
Priestia megaterium = test: Antimicrobial activity against Bacillus megaterium; type: functional
Candida tropicalis = test: Antifungal activity against Candida tropicalis; type: functional
Nakaseomyces glabratus = test: Antifungal activity against Candida glabrata; type: functional
Bacillus subtilis [21] = test: Antimicrobial activity against Bacillus subtilis; type: functional
PANC-1 = test: Growth inhibition of human PANC1 cells; type: functional
SiHa = test: Growth inhibition of human SiHa cells; type: functional
MDA-MB-231 = test: Growth inhibition of human MDA-MB-231 cells; type: functional

Compound: CCOC(=O)C(C#N)C(c1cc2c(OCC)cccc2n2nnnc12)P(=O)(OCC)OCC (stereo not drawn)
- MIC (Bacillus subtilis [1]): 10 to 20 µg/mL (≈ 21 to 42.1 µM)
- MIC (Escherichia coli [2]): 10 to 20 µg/mL (≈ 21 to 42.1 µM)
- MIC (Candida albicans [3]): 10 to 20 µg/mL (≈ 21 to 42.1 µM)
- MIC (Aspergillus niger [4]): 10 to 20 µg/mL (≈ 21 to 42.1 µM)

Compound: O=C(/C=C/c1ccccc1[N+](=O)[O-])n1nnnc1-c1ccccc1
- zone of inhibition at 50 µg/mL (Staphylococcus aureus [17]): 8 to 15 mm
- zone of inhibition at 50 µg/mL (Escherichia coli [18]): 8 to 15 mm
- zone of inhibition at 50 µg/mL (Candida albicans [19]): 8 to 15 mm
- zone of inhibition at 50 µg/mL (Aspergillus niger [20]): 8 to 15 mm

Compound: COC1=CC(=O)C[C@@H](C)[C@]12Oc1c(Cl)c(OC)cc(OC)c1C2=O [GRISEOFULVIN]
- MIC (Bacillus subtilis [1]): 10 µg/mL (≈ 28.3 µM)
- zone of inhibition at 50 µg/mL (Staphylococcus aureus [17]): 21 to 24 mm
- zone of inhibition at 50 µg/mL (Escherichia coli [18]): 21 to 24 mm
- zone of inhibition at 50 µg/mL (Candida albicans [19]): 21 to 24 mm
- zone of inhibition at 50 µg/mL (Aspergillus niger [20]): 21 to 24 mm
- MIC (Escherichia coli [2]): 10 µg/mL (≈ 28.3 µM)
- MIC (Candida albicans [3]): 10 µg/mL (≈ 28.3 µM)
- MIC (Aspergillus niger [4]): 10 µg/mL (≈ 28.3 µM)

Compound: CC/C(=C(\c1ccccc1)c1ccc(OCCN(C)C)cc1)c1ccccc1 [TAMOXIFEN]
- GI50 (PANC-1): 120 to 240 nM
- GI50 (SiHa): 120 to 240 nM
- GI50 (MDA-MB-231): 120 to 240 nM

Continued, in another order:

- MIC (Candida albicans [5]): 50 to 100 µg/mL (≈ 161 to 321 µM)
- MIC (Bacillus cereus [6]): 50 to 100 µg/mL (≈ 161 to 321 µM)
- MIC (Staphylococcus aureus [11]): 50 to 100 µg/mL (≈ 161 to 321 µM)
- MIC (Escherichia coli [12]): 50 to 100 µg/mL (≈ 161 to 321 µM)
- MIC (Pseudomonas aeruginosa [15]): 50 to 100 µg/mL (≈ 161 to 321 µM)
- MIC (Aspergillus niger [16]): 50 to 100 µg/mL (≈ 161 to 321 µM)
Compound: Oc1ccc(-c2nnnn2-c2nc3ccccc3s2)cc1O
- zone of inhibition at 250 µg/mL (Aspergillus niger [7]): 16 to 26 mm
- zone of inhibition at 250 µg/mL (Candida albicans [8]): 16 to 26 mm
- zone of inhibition at 250 µg/mL (Pseudomonas aeruginosa [9]): 16 to 26 mm
- zone of inhibition at 250 µg/mL (Bacillus cereus [10]): 16 to 26 mm
- zone of inhibition at 250 µg/mL (Escherichia coli [13]): 16 to 26 mm
- zone of inhibition at 250 µg/mL (Staphylococcus aureus [14]): 16 to 26 mm

- MIC (Candida albicans [5]): 50 to 100 µg/mL (≈ 169 to 339 µM)
- MIC (Bacillus cereus [6]): 50 to 100 µg/mL (≈ 169 to 339 µM)
- MIC (Staphylococcus aureus [11]): 50 to 100 µg/mL (≈ 169 to 339 µM)
- MIC (Escherichia coli [12]): 50 to 100 µg/mL (≈ 169 to 339 µM)
- MIC (Pseudomonas aeruginosa [15]): 50 to 100 µg/mL (≈ 169 to 339 µM)
- MIC (Aspergillus niger [16]): 50 to 100 µg/mL (≈ 169 to 339 µM)
Compound: Oc1ccc(-c2nnnn2-c2nc3ccccc3s2)cc1
- zone of inhibition at 250 µg/mL (Aspergillus niger [7]): 16 to 26 mm
- zone of inhibition at 250 µg/mL (Candida albicans [8]): 16 to 26 mm
- zone of inhibition at 250 µg/mL (Pseudomonas aeruginosa [9]): 16 to 26 mm
- zone of inhibition at 250 µg/mL (Bacillus cereus [10]): 16 to 26 mm
- zone of inhibition at 250 µg/mL (Escherichia coli [13]): 16 to 26 mm
- zone of inhibition at 250 µg/mL (Staphylococcus aureus [14]): 16 to 26 mm

- MIC (Candida albicans [5]): 25 to 50 µg/mL (≈ 75.4 to 151 µM)
- MIC (Staphylococcus aureus [11]): 25 to 50 µg/mL (≈ 75.4 to 151 µM)
- MIC (Salmonella typhimurium): 25 to 50 µg/mL (≈ 75.4 to 151 µM)
- MIC (Escherichia coli [12]): 25 to 50 µg/mL (≈ 75.4 to 151 µM)
- MIC (Pseudomonas aeruginosa [15]): 25 to 50 µg/mL (≈ 75.4 to 151 µM)
- MIC (Micrococcus luteus): 25 to 50 µg/mL (≈ 75.4 to 151 µM)
- MIC (Priestia megaterium): 25 to 50 µg/mL (≈ 75.4 to 151 µM)
- MIC (Aspergillus niger [16]): 25 to 50 µg/mL (≈ 75.4 to 151 µM)
Compound: O=C(O)c1cn(C2CC2)c2cc(N3CCNCC3)c(F)cc2c1=O [CIPROFLOXACIN]
- zone of inhibition at 50 µg/mL (Staphylococcus aureus [17]): 19 to 20 mm
- zone of inhibition at 50 µg/mL (Escherichia coli [18]): 19 to 20 mm
- zone of inhibition at 50 µg/mL (Candida albicans [19]): 19 to 20 mm
- zone of inhibition at 50 µg/mL (Aspergillus niger [20]): 19 to 20 mm

- MIC (Candida albicans [5]): 12.5 to 800 µg/mL (≈ 30 to 1920 µM)
- MIC (Candida tropicalis): 12.5 to 800 µg/mL (≈ 30 to 1920 µM)
- MIC (Nakaseomyces glabratus): 12.5 to 800 µg/mL (≈ 30 to 1920 µM)
Compound: Clc1ccc(COC(Cn2ccnc2)c2ccc(Cl)cc2Cl)c(Cl)c1 (stereo not drawn) [MICONAZOLE]

- MIC (Salmonella typhimurium): 31.2 µg/mL (≈ 103 µM)
- MIC (Escherichia coli [12]): 31.2 µg/mL (≈ 103 µM)
- MIC (Bacillus subtilis [21]): 31.2 µg/mL (≈ 103 µM)
- MIC (Micrococcus luteus): 31.2 µg/mL (≈ 103 µM)
- MIC (Priestia megaterium): 31.2 µg/mL (≈ 103 µM)
Compound: CCn1cc(C(=O)O)c(=O)c2cnc(N3CCNCC3)nc21 [PIPEMIDIC ACID]
